# In patent US20260250317A1, “COMPOUND AND USE OF THE SAME” (JAPAN SCIENCE AND TECHNOLOGY AGENCY, priority 2022, published 2026):
# Entries after “also recorded” stand apart in the source; their conditions may differ. Starred links: 1 amine or outer side, 2 acyl side, 3 side chain; linkers in the order of their positions; H or OH if unused. Non-standard residues stand in square brackets, D forms with d. Residues, ends and D or L forms follow the SMILES beside them. X1 = O=C(C(Cc1ccc(/N=N/c2ccccc2)cc1)N[*:1])[*:2]
# Columns and labels:
# [1] = Droplet fusion and control by light irradiation
# Protocol: A mixed aqueous solution including 5 wt % DEX550k and 5 w % PEG35k was produced in a microtube. Next, the compound (P1) was added to the mixed aqueous solution to be 1 wt % thereof, dissolved, and stirred for 1 minute using a vortex. […] The produced droplets were position-selectively irradiated with 350 nm light for 6 minutes. The droplet dispersion liquid was placed in a transparent cell having a depth of 1 mm and light irradiation was performed using a fluorescence microscope (Olympus IX-73). A U-HGLGPS (brightness: 130 W) was used as the light source for the fluorescence microscope and light was irradiated with a brightness output setting of 25%.
# To observe the localization of the compound (P), the compound (P1) was labeled using Cy5. A mixed aqueous solution including 5 wt % dextran (550 kDa; DEX550k) and 5 wt % polyethylene glycol (35 kDa; PEG35k) was produced in a microtube. Next, the Cy5-labeled compound (P1) was added to the mixed aqueous solution to be 1 wt % thereof, dissolved, and stirred for 1 minute using a vortex. […] The droplets were irradiated with 350 nm light for 5 seconds. The droplet dispersion liquid was placed in a transparent cell having a depth of 1 mm and light irradiation was performed using a fluorescence microscope (Olympus IX-73). A U-HGLGPS (brightness: 130 W) was used as the light source for the fluorescence microscope and light was irradiated with a brightness output setting of 25%. Before and after light irradiation, the droplets were observed using a phase-contrast microscope (Olympus IX-73 connected to a phase-contrast light source) and a fluorescence microscope (Olympus IX-73 connected to a fluorescence light source U-HGLGPS).
# A mixed aqueous solution including 5 wt % dextran (550 kDa; DEX550k) and 5 wt % polyethylene glycol (35 kDa; PEG35k) was produced in a microtube. Next, the labeled compound (P1) was added to the mixed aqueous solution to be 1 wt % thereof, dissolved, and stirred for 1 minute using a vortex. […] The droplets were subjected to any of the following light irradiation operations (1) to (3). The light irradiation was performed in the same manner as described above. • (1) No light irradiation. • (2) Irradiation with 350 nm light for 5 seconds. • (3) Irradiation with 350 nm light for 5 seconds, followed by irradiation with 550 nm light for 5 seconds.
# The droplets were observed under a phase-contrast microscope before and after carrying out the light irradiation operation under the above-described conditions. In (1), an image “before carrying out the light irradiation operation” was taken and then an image “after carrying out the light irradiation operation” was taken within 1 minute. No light irradiation was performed between “before carrying out the light irradiation operation” and “after carrying out the light irradiation operation”. In (2), an image “after carrying out the light irradiation operation” was taken immediately after 5 seconds of irradiation with 350 nm light. In (3), 350 nm light was irradiated for 5 seconds, immediately followed by irradiating 550 nm light for 5 seconds, and an image “after carrying out the light irradiation operation” was taken immediately after the 550 nm light was irradiated for 5 seconds.
# A mixed aqueous solution including 5 wt % DEX550k and 5 w % PEG35k was produced in a microtube. Next, the compound (P2) was added to the mixed aqueous solution to be 1 wt % thereof, dissolved, and stirred for 1 minute using a vortex. […] The produced droplets were irradiated with 350 nm light for 5 seconds. The droplet dispersion liquid was placed in a transparent cell having a depth of 1 mm and light irradiation was performed using a fluorescence microscope (Olympus IX-73).
# [2] = Evaluation of droplet stability (phase-contrast microscope); settings: 1 wt % compound, 5 wt % DEX550k, 5 wt % PEG35k
# Protocol: A mixed aqueous solution including 5 wt % dextran (550 kDa; DEX550k), 0.002 wt % rhodamine-DEX550k, and 5 wt % polyethylene glycol (35 kDa; PEG35k) was produced in a microtube. Next, the compound (P1) was added to the mixed aqueous solution to be 1 wt % thereof, dissolved, and stirred for 1 minute using a vortex. Due to this, liquid-liquid phase-separated droplets were produced.
# Liquid-liquid phase-separated droplets were produced by the same method as in <Droplet Production Example 1>. After production of the droplets, the droplets were left to stand for 24 hours and the state of the droplets was observed using a phase-contrast microscope.
# Liquid-liquid phase-separated droplets were produced by the same method as in <Droplet Production Example 1>. After production of the droplets, the droplets were left to stand for 16 days and the state of the droplets was observed using a phase-contrast microscope.
# [3] = TEM analysis of dispersion liquid; format: physicochemical; settings: 1.0 wt % dispersion, irradiated with 450 nm light
# Protocol: (§1) This dispersion liquid was incubated for 3 days in a dark place at 37° C. in a 5% CO2 atmosphere. Thereafter, the dispersion liquid was irradiated with 450 nm light and analyzed with a transmission electron microscope (JEOL JEM-1400).
# as §1, with “nm or 550 nm” for “nm”, “absorption spectrum analysis was performed by infrared absorption spectroscopy analysis (IR) (JASCO FTIR-6100) and analysis was performed using” for “analyzed with”
# [4] = Photoresponsiveness (UV-vis absorption spectrum after light irradiation); format: physicochemical; settings: 1 wt % dispersion in D-MEM with 4 mM HEPES, 25° C.; P1: 350 nm / 450 nm; P3: 540 nm / 450 nm
# Protocol: The compound (P1) was dispersed in a D-MEM buffer solution including 4 mM HEPES to produce a dispersion liquid including 1 wt % of the compound (P1). This dispersion liquid was placed in a transparent cell having a depth of 1 mm and irradiated with light using a fluorescence microscope (Olympus IX-73). A U-HGLGPS (brightness: 130 W) was used as the light source for the fluorescence microscope and light was irradiated with a brightness output setting of 25%. The absorption spectrum and circular dichroism (CD) spectrum of the dispersion liquid after light irradiation were measured by ultraviolet-visible light spectroscopy. The measurements were performed at room temperature (25° C.).
# This dispersion liquid was irradiated with 450 nm or 550 nm light and the absorption spectrum was analyzed by ultraviolet-visible spectroscopy (UV-vis) (JASCO V-650 spectrophotometer). Measurements were performed at room temperature (25° C.).
# [5] = Reversible gel-sol transition by light irradiation (test tube); format: physicochemical
# Protocol: The compound (P1) was dispersed in a D-MEM buffer solution (4 mM HEPES, containing 1 wt % NaHCO3, pH 8.5) to produce a dispersion liquid including 1.0 wt % of the compound (P1). The dispersion liquid was placed in a test tube to observe the gel-sol transition caused by light irradiation. Incubation after the start of light irradiation was performed at 37° C. in a 5% CO2 atmosphere.
# This dispersion liquid was placed in a test tube to observe the changes in gelation and solation caused by light irradiation. After the start of light irradiation, incubation was performed at 37° C. in a 5% CO2 atmosphere.
# [6] = Rheological evaluation (storage modulus G' and loss modulus G'', rotational rheometer); format: physicochemical; settings: trans form, 1.0 wt % in D-MEM buffer pH 8.5, incubated 3 days at 37° C. in dark
# Protocol: The trans form of the compound (P1) was dispersed in a D-MEM buffer solution (4 mM HEPES, containing 1 wt % NaHCO3, pH 8.5) to produce a dispersion liquid including 1.0 wt % of the compound (P1). This dispersion liquid was incubated for 3 days in a dark place at 37° C. in a 5% CO2 atmosphere. Thereafter, the storage modulus G′ and loss modulus G″ were measured using a rotational rheometer (Malvern Panalytical, Kinexus lab+).
# This dispersion liquid was incubated for 3 days in a dark place at 37° C. in a 5% CO2 atmosphere. The storage modulus G′ and loss modulus G″ were then measured using a rotational rheometer (Malvern Panalytical, Kinexus lab+).
# [7] = 1 wt % compound, 350 nm light for 5 seconds
"state of droplet dispersion liquid before irradiation with 350 nm light ([1]; Cy5-labeled compound, 1 wt %)","state of droplet dispersion liquid after irradiation with 350 nm light ([1]; Cy5-labeled compound, 1 wt %, 350 nm light for 5 seconds)","structure in TEM image, trans form [3]","state of dispersion liquid at start of light irradiation, cis form ([5]; 1.0 wt % in D-MEM buffer pH 8.5, 0 min)","state of dispersion liquid at start of light irradiation, trans form ([5]; 1.0 wt % in D-MEM buffer pH 8.5, 0 min / before irradiation)","state of trans-form dispersion liquid after 350 nm light ([5]; 1.0 wt %, 350 nm light for 15 minutes, 37° C., 5% CO2)","state of cis-form dispersion liquid after 450 nm light ([5]; 1.0 wt %, 450 nm light for 15 minutes, 37° C., 5% CO2)",gel formation (G' versus G'') [6],SMILES,"change of droplets after 350 nm light [1, 7]","droplet fusion in light irradiated spot ([1]; 1 wt % compound, position-selective 350 nm light for 6 minutes)","change of droplets after 350 nm then 550 nm light ([1]; 1 wt % labeled compound, 350 nm light 5 seconds, then 550 nm light 5 seconds)","change of droplets, no light irradiation ([1]; 1 wt % labeled compound, operation (1) no light irradiation)",time for which droplets were stably maintained ([2]; left to stand 24 hours),time after which droplets were still stably maintained ([2]; left to stand 16 days),photoisomerization of azobenzene structure on light irradiation [4]
gel state,sol state,formed a structure in a fibrous state,underwent solation,underwent gelation,underwent solation,underwent gelation,a gel was formed,CSCCC(NC(=O)C(CCCNC(=N)N)NC(=O)C(C)NC(=O)C(CC(=O)O)NC(=O)C(Cc1ccc(/N=N/c2ccccc2)cc1)NC(=O)C(CCCNC(=N)N)NC(C)=O)C(=O)NC(CCCNC(=N)N)C(N)=O (stereo not shown) [Compound (P1)] (Ac-R[X1]DARMR-NH2; configuration not given here),droplets which were larger than before the light irradiation were observed; also recorded: the size of the droplets significantly increased,a larger droplet was formed,the number of droplets decreased and the size of the droplets increased,no change was seen in the size of the droplets,≥ 24 h,≥ 16 days,reversibly isomerized from the trans form to the cis form and from the cis form to the trans form
,,,,,,,,CSCCC(NC(=O)C(CCCNC(=N)N)NC(C)=O)C(=O)NC(CC(=O)O)C(=O)NC(C)C(=O)NC(CCCNC(=N)N)C(=O)NC(Cc1ccc(/N=N/c2ccccc2)cc1)C(=O)NC(CCCNC(=N)N)C(N)=O (stereo not shown) [Compound (P2)] (Ac-RMDAR[X1]R-NH2; configuration not given here),larger droplets were formed,,,,,,
